Tested on: patients with PBC
Assay: phase II study of elafibranor for the treatment of PBC (serum ALP, 12 weeks)
Format: in vivo, human
Settings: for treatment effect estimate vs placebo, relative change in serum ALP (supportive analysis): ANCOVA with baseline ALP as covariate; for treatment effect estimate vs placebo, relative change in serum ALP (primary efficacy analysis): non-parametric randomization-based ANCOVA with baseline ALP as covariate, p<0.001; for mean relative change (%) from baseline to Endpoint in serum ALP: placebo 3.2%
Procedure: Elafibranor (2-(2,6-dimethyl-4-{3 [4-(methylsulfanyl)phenyl]-3-oxopropen-1-yl}phenoxy)-2-methylpropanoic acid) is a drug currently tested in a pivotal phase III study for the treatment of PBC. Elafibranor was also evaluated in a phase II study for the treatment of PBC. […] Elafibranor (2-(2,6-dimethyl-4-{3-[4-(methylsulfanyl)phenyl]-3-oxopropen-1-yl}phenoxy)-2-methylpropanoic acid) was supplied as 80 mg white to offwhite round coated tablets with no printed inscription. A placebo tablet (of the same size as the corresponding active tablet) to match elafibranor 80 mg was provided as a white to off-white round coated tablet with no printed inscription. The placebo tablet contained the same excipients as the active formulation as well as lactose monohydrate (which was used in place of the active ingredient). […] The treatment effect estimate was −52.0% (95% Cl [−62.5; −41.5]) for the elafibranor 80 mg treatment group and −43.9% (95% Cl [−55.7; −32.1]) for the elafibranor 120 mg treatment group (FIG. 1). The primary efficacy supportive analysis conducted using an ANCOVA with baseline ALP as a covariate was consistent with the primary efficacy analysis. The treatment effect estimate was −51.4% (95% Cl [−63.3; −39.5]) for the elafibranor 80 mg treatment group and −43.9% (95% Cl [−55.8; −31.9]) for the elafibranor 120 mg treatment group (FIG. 1).

CSc1ccc(C(=O)C=Cc2cc(C)c(OC(C)(C)C(=O)O)c(C)c2)cc1 [elafibranor, 2-(2,6-dimethyl-4-{3-[4-(methylsulfanyl)phenyl]-3-oxopropen-1-yl}phenoxy)-2-methylpropanoic acid]
absolute change from baseline in serum ALP vs placebo at Endpoint (80 mg (p<0.001) and 120 mg treatment groups): statistically significantly different from placebo | relative change from baseline in serum ALP vs placebo at Endpoint (80 mg and 120 mg treatment groups): statistically significantly different from placebo | mean ALP values from baseline through Week 12 (80 mg and 120 mg treatment groups, FIG. 2): declining mean ALP values | mean relative changes (%) in ALP values from baseline through Week 12 (80 mg and 120 mg treatment groups, beginning at Week 2 up through Week 12, FIG. 3): decrease in ALP values over time | treatment effect estimate vs placebo, relative change in serum ALP (supportive analysis) (80 mg, 95% CI [−63.3, −39.5]): −51.4% | treatment effect estimate vs placebo, relative change in serum ALP (primary efficacy analysis) (80 mg, 95% CI [−62.5, −41.5]): −52.0% | treatment effect estimate vs placebo, relative change in serum ALP (supportive analysis) (120 mg, 95% CI [−55.8, −31.9]): −43.9% | treatment effect estimate vs placebo, relative change in serum ALP (primary efficacy analysis) (120 mg, 95% CI [−55.7, −32.1]): −43.9% | reduction in plasma ALP levels from baseline compared to placebo (PBC patients): consistent, statistically significant reduction | mean relative change (%) from baseline to Endpoint in serum ALP (elafibranor 80 mg treatment group, PBC patients): −48.3% | mean relative change (%) from baseline to Endpoint in serum ALP (elafibranor 120 mg treatment group, PBC patients): −40.6% | safety and tolerability in patients (in vivo): safe and well-tolerated
